Reference: ChEMBL document CHEMBL1129600, “Identification of retinoic acid receptor beta subtype specific agonists” (J Med Chem, 1996)

Columns and labels:
[1] = molecular target: T1, Retinoic acid receptor beta (Homo sapiens, UniProt P10826); test: Transcriptional activation in CV-1 cells expressing Retinoic acid receptor RAR beta; type: cell-based
T1 sequence (P10826 whole entry): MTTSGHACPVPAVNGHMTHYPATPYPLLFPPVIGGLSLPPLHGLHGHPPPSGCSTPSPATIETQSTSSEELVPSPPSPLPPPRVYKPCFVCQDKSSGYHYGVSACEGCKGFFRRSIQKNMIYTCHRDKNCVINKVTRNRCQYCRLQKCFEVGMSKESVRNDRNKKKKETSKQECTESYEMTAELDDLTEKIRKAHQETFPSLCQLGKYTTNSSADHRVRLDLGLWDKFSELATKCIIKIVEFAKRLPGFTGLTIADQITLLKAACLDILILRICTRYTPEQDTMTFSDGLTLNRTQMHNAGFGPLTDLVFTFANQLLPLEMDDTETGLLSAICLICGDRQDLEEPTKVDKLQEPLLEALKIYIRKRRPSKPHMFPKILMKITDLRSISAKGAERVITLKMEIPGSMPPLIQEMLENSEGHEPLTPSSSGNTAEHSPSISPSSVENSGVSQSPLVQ

[2] = molecular target: T2, Retinoic acid receptor gamma (Homo sapiens, UniProt P13631); test: Inhibition of [3H]ATRA binding to baculovirus expressed Retinoic acid receptor RAR gamma
T2 sequence (P13631 whole entry): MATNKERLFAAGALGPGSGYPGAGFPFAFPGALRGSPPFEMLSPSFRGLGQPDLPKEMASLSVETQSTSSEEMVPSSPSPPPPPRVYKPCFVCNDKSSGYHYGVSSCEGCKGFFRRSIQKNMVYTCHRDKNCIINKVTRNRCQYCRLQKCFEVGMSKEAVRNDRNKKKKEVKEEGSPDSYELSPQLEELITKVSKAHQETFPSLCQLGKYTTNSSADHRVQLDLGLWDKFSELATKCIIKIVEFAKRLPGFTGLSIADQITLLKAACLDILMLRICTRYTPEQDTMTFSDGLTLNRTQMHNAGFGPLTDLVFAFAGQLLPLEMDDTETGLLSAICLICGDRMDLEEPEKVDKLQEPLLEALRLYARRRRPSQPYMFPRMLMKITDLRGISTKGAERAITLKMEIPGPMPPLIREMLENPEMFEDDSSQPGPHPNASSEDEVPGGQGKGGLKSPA

[3] = molecular target: T3, Retinoic acid receptor beta (Homo sapiens) (UniProt P10826); test: Relative efficacy for Retinoic acid receptor beta compared to maximal retinoic acid response
T3 sequence (whole entry): T1 sequence (P10826 whole entry)

[4] = molecular target: T4, Retinoic acid receptor alpha (Homo sapiens, UniProt P10276); test: Inhibition of [3H]ATRA binding to baculovirus expressed Retinoic acid receptor RAR alpha
T4 sequence (P10276 whole entry): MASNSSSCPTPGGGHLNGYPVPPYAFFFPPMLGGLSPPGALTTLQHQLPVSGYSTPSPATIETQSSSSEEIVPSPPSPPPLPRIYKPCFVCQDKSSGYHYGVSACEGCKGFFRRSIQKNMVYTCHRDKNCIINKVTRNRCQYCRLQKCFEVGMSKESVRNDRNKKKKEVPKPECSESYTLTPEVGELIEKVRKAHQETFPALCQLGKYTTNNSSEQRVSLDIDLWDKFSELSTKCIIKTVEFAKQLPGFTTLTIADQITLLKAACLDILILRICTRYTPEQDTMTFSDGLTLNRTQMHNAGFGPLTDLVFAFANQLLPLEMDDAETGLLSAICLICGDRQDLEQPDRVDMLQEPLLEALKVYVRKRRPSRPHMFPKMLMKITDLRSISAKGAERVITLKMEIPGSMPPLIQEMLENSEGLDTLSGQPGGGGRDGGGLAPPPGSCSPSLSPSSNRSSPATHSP

[5] = molecular target: T1, Retinoic acid receptor beta; test: Inhibition of [3H]ATRA binding to baculovirus expressed Retinoic acid receptor RAR beta

EC50 [1] [nM]	Kd [2] [nM]	Eff [3] [%]	Kd [4] [nM]	Kd [5] [nM]	SMILES
115	> 10000	61	94	996	CC1(C)CC=C(c2cccs2)c2cc(C(=O)Nc3ccc(C(=O)O)cc3)ccc21
26	1490	47	303	189	CC1(C)CC=C(c2cccs2)c2cc(C(=O)Oc3ccc(C(=O)O)cc3)ccc21
25	104	32	129	20	CC1(C)CC=C(c2cccs2)c2cc(C#Cc3ccc(C(=O)O)cc3)ccc21
